One block for each compound: values may come before it.
Experiments:
[1] = Apparent permeability across apical to basolateral side in RRCK cells at 1 uM after 2 hrs by LC/MS-MS analysis; type: ADME, cell-based, Canis lupus familiaris, MDCKII-LE; details: dog, MDCK
[2] = Ratio of unbound drug level in cynomolgus monkey brain to plasma at 600 mg/kg, po measured 7.65 hrs post dose on day 1; type: ADME, organism-based, Macaca fascicularis; details: read-out: K(p,uu,brain)
[3] = Oral bioavailability in Sprague-Dawley rat at 25 mg/kg; type: ADME, organism-based; details: in vivo
[4] = AUC (0 to 24 hrs) at steady state in Crl:CD(SD) rat at 50 mg/kg/day, administered via oral gavage for 14 consecutive days measured on day 13; type: ADME, organism-based; set-up: dose 50 mg/kg/day, time < 24 hr, route oral; details: in vivo
[5] = system: Plasma; assay: Drug metabolism in cynomolgus monkey plasma assessed as metabolite formation at 150 mg/kg, administered via oral gavage measured on day 1 by UV-LC-MS/MS analysis; type: ADME, organism-based, Macaca fascicularis; details: in vivo
[6] = AUC (0 to 24 hrs) at steady state in cynomolgus monkey at 600 mg/kg/day, administered via oral gavage for 14 consecutive days measured on day 13; type: ADME, organism-based, Macaca fascicularis; set-up: dose 600 mg/kg/day, time < 24 hr, route oral; details: in vivo
[7] = Oral bioavailability cynomolgus monkey […] at 30 mg/kg; type: ADME, organism-based, Macaca fascicularis; details: in vivo
[8] = system: Plasma; assay: Drug metabolism in cynomolgus monkey plasma assessed as glucuronidated metabolite formation at 150 mg/kg, administered via oral gavage measured on day 12 by UV-LC-MS/MS analysis; type: ADME, organism-based, Macaca fascicularis; details: in vivo
[9] = system: Plasma; assay: Drug metabolism in Crl:CD(SD) rat plasma assessed as metabolite formation at 150 mg/kg, administered via oral gavage measured on day 1 by UV-LC-MS/MS analysis; type: ADME, organism-based; details: in vivo
[10] = Volume of distribution at steady state in Sprague-Dawley rat at 1 mg/kg, iv via single bolus administration; type: ADME, organism-based; details: in vivo, read-out: Vdss
[11] = Volume of distribution at steady state in 6 MPTP-treated dyskinetic PD-LID rhesus monkey at 2 mg/kg administered BID; type: ADME, organism-based, Macaca mulatta; details: in vivo, read-out: Vdss
[12] = Volume of distribution at steady state in cynomolgus monkey at 1 mg/kg, iv via single bolus administration; type: ADME, organism-based, Macaca fascicularis; details: in vivo, read-out: Vdss
[13] = Bioavailability in 6 MPTP-treated dyskinetic PD-LID rhesus monkey model at 2 mg/kg administered BID; type: ADME, organism-based, Macaca mulatta; details: in vivo
[14] = AUC (0 to 24 hrs) at steady state in cynomolgus monkey at 50 mg/kg/day, administered via oral gavage for 14 consecutive days measured on day 13; type: ADME, organism-based, Macaca fascicularis; set-up: time < 24 hr, dose 50 mg/kg/day, route oral; details: in vivo
[15] = AUC (0 to 24 hrs) at steady state in Crl:CD(SD) rat at 500 mg/kg/day, administered via oral gavage for 14 consecutive days measured on day 13; type: ADME, organism-based; set-up: dose 500 mg/kg/day, time < 24 hr, route oral; details: in vivo
[16] = AUC (0 to 24 hrs) at steady state in cynomolgus monkey at 150 mg/kg/day, administered via oral gavage for 14 consecutive days measured on day 13; type: ADME, organism-based, Macaca fascicularis; set-up: time < 24 hr, dose 150 mg/kg/day, route oral; details: in vivo
[17] = system: Plasma; assay: Plasma concentration in human; type: ADME, cell-free
[18] = AUC (0 to 24 hrs) at steady state in Crl:CD(SD) rat at 150 mg/kg/day, administered via oral gavage for 14 consecutive days measured on day 13; type: ADME, organism-based; set-up: time < 24 hr, dose 150 mg/kg/day, route oral; details: in vivo
[19] = system: Plasma; assay: Drug metabolism in cynomolgus monkey plasma assessed as N-oxygenated metabolite formation at 150 mg/kg, administered via oral gavage measured on day 12 by UV-LC-MS/MS analysis; type: ADME, organism-based, Macaca fascicularis; details: in vivo
[20] = system: Plasma; assay: Drug metabolism in cynomolgus monkey plasma assessed as monohydroxylated metabolite formation at 150 mg/kg, administered via oral gavage measured on day 12 by UV-LC-MS/MS analysis; type: ADME, organism-based, Macaca fascicularis; details: in vivo
[21] = system: Plasma; assay: Drug metabolism in cynomolgus monkey plasma assessed as O-dealkylated metabolite formation at 150 mg/kg, administered via oral gavage measured on day 12 by UV-LC-MS/MS analysis; type: ADME, organism-based, Macaca fascicularis; details: in vivo
[22] = Ratio of free AUC (0 to 4 hrs) in Sprague-Dawley rat brain to plasma at 0.32 to 1 mg/kg, sc; type: ADME, organism-based

Papp A→B at 2 h, 1 µM [1]: 26 ×10⁻⁶ cm/s
SMILES: Cc1csc(COc2cc(=O)n3c(n2)COC[C@H]3Cc2ccccc2)n1

Papp A→B at 2 h, 1 µM [1]: 28 ×10⁻⁶ cm/s
SMILES: O=c1cc(OCc2ccccn2)nc2n1[C@H](Cc1ccccc1)COC2

Papp A→B at 2 h, 1 µM [1]: 4 ×10⁻⁶ cm/s
SMILES: O=c1cc(OCc2cccc(Cl)c2)nc2n1[C@@H](Cc1ccccc1)COC2

Papp A→B at 2 h, 1 µM [1]: 4 ×10⁻⁶ cm/s
SMILES: O=c1cc(OCc2cccc(Cl)c2)nc2n1[C@H](Cc1ccccc1)COC2

Papp A→B at 2 h, 1 µM [1]: 26 ×10⁻⁶ cm/s
SMILES: O=c1cc(SCc2ccccn2)nc2ccccn12

bioavailability [3]: 62%
bioavailability [7]: 43%
Papp A→B at 2 h, 1 µM [1]: 28 ×10⁻⁶ cm/s
Vd [10]: 2.14 L/kg
Vd [12]: 2.23 L/kg
Kp uu [22]: 2.19
SMILES: CC(C)C[C@@H]1COCc2nc(OCc3cccc(C#N)c3)cc(=O)n21

Further lines, the compound ahead of its results:

SMILES: CC(C)C[C@@H]1COCc2nc(OCc3ccccn3)cc(=O)n21
Papp A→B at 2 h, 1 µM [1]: 39 ×10⁻⁶ cm/s

SMILES: O=c1cc(OCc2cccc(Cl)c2)nc2n1CCCC2
Papp A→B at 2 h, 1 µM [1]: 26 ×10⁻⁶ cm/s

SMILES: Cc1cccc(COc2cc(=O)n3cc(Oc4cccnc4)ccc3n2)n1
Papp A→B at 2 h, 1 µM [1]: 24 ×10⁻⁶ cm/s

SMILES: N#Cc1cccc(COc2cc(=O)n3c(n2)COC[C@H]3Cc2ccccc2)c1
Papp A→B at 2 h, 1 µM [1]: 26 ×10⁻⁶ cm/s

SMILES: CC(C)(C)C[C@@H]1COCc2nc(OCc3ccccn3)cc(=O)n21
Kp uu at 7.65 h [2]: 0.89
bioavailability [3]: 20%
AUC at 24 h [4]: 23200 ng·h/mL
Drug metabolism [5]: Metabolite_Detected
AUC at 24 h [6]: 41500 ng·h/mL
bioavailability [7]: 11%
Drug metabolism [8]: Metabolite_Detected
Drug metabolism [9]: Metabolite_Detected
Papp A→B at 2 h, 1 µM [1]: 29 ×10⁻⁶ cm/s
Vd [10]: 1.29 L/kg
Vd [11]: 1 L/kg
Vd [12]: 1.24 L/kg
bioavailability [13]: 91%
AUC at 24 h [14]: 3680 ng·h/mL
AUC at 24 h [15]: 313000 ng·h/mL
AUC at 24 h [16]: 45400 ng·h/mL
Cp [17]: 31 ng/mL
AUC at 24 h [18]: 117000 ng·h/mL
Drug metabolism [19]: Metabolite_Detected
Drug metabolism [20]: Metabolite_Detected
Drug metabolism [21]: Metabolite_Detected
Kp uu [22]: 1.22

SMILES: O=c1cc(OCCC2CC2)nc2n1[C@H](Cc1ccccc1)COC2
Papp A→B at 2 h, 1 µM [1]: 22 ×10⁻⁶ cm/s

SMILES: Cc1cccc(COc2cc(=O)n3c(n2)COC[C@H]3Cc2ccccc2)n1
Papp A→B at 2 h, 1 µM [1]: 22 ×10⁻⁶ cm/s

SMILES: CC(C)(C)C[C@@H]1COCc2nc(OCc3cccc(C#N)c3)cc(=O)n21
Papp A→B at 2 h, 1 µM [1]: 25 ×10⁻⁶ cm/s

SMILES: O=c1cc(OCc2cccc(Cl)c2)nc2n1CCOC2
Papp A→B at 2 h, 1 µM [1]: 31 ×10⁻⁶ cm/s

SMILES: O=c1cc(OCc2cccc(Cl)c2)nc2ccccn12
Papp A→B at 2 h, 1 µM [1]: 16 ×10⁻⁶ cm/s

SMILES: O=c1cc(OCc2cccc(Cl)c2)nc2ccc(Oc3cccnc3)cn12
Papp A→B at 2 h, 1 µM [1]: 7 ×10⁻⁶ cm/s
